# Test results from publication PMC8498988, “Scaffold Hybridization Strategy Leads to the Discovery of Dopamine D3 Receptor-Selective or Multitarget Bitopic Ligands Potentially Useful for Central Nervous System Disorders” (ACS Chemical Neuroscience, 2021).
# Key:
# [1] = target: D2R (Homo sapiens, UniProt P14416); assay: Radioligand competition binding at human D2R ([3H]N-methylspiperone, HEK293 membranes); parameters: expressed in transfected cells; host or cells: HEK293; details: HEK 293 cells expressing hD2R, read-out: Ki ± SEM, D2R
# Chain of D2R (P14416 whole entry): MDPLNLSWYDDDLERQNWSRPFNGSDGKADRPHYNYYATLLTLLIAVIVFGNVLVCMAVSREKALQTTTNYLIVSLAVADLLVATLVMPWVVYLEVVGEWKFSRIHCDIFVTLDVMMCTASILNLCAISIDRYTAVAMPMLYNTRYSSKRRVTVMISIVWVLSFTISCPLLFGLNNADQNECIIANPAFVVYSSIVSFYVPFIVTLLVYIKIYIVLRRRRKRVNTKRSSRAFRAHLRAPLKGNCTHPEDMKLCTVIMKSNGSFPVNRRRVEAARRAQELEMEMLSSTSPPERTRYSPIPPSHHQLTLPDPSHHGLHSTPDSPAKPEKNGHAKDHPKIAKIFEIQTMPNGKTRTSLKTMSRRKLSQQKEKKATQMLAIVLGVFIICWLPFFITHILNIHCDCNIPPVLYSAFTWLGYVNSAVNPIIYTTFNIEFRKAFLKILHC
# Description: (§1) The novel hybrid derivatives 3–11 were tested at hD2R, hD3R, or hD4R stably expressed in HEK293 cells by competition binding assays, using [^3H]N-methylspiperone as the radioligand, to evaluate their D2-like affinity and subtype selectivity, following the previously reported procedures.[41],[45],[46]
# (§2) Binding at dopamine D2-like receptors was determined using previously described methods.[41],[45],[46] Membranes were prepared from HEK293 cells stably expressing human D2, D3, or D4, grown in a 50:50 mix of Dulbecco’s minimal essential medium (DMEM) and Ham’s F12 culture media, supplemented with 20 mM HEPES, 2 mM L-glutamine, 0.1 mM nonessential amino acids, 1× antibiotic/antimycotic, 10% heat-inactivated fetal bovine serum, and 200 μg/mL hygromycin (Life Technologies, Grand Island, NY) and kept in an incubator at 37 °C and 5% CO2. Upon reaching 80–90% confluency, the cells were harvested using premixed Earle’s Balanced Salt Solution (EBSS) with 5 μM EDTA (Life Technologies) and centrifuged at 3000 rpm for 10 min at 21 °C. The supernatant was removed, and the pellet was resuspended in 10 mL hypotonic lysis buffer (5 mM MgCl2, 5 mM Tris, pH 7.4 at 4 °C) and centrifuged at 20,000 rpm for 30 min at 4 °C. The pellet was then resuspended in fresh EBSS buffer made from 8.7 g/L Earle’s Balanced Salts without phenol red (US Biological, Salem, MA), 2.2 g/L sodium bicarbonate, pH to 7.4. A Bradford protein assay (Bio-Rad, Hercules, CA) was used to determine the protein concentration, and membranes were diluted to 500 μg/mL and stored at −80 °C for later use. Radioligand competition binding experiments were conducted using thawed membranes. Test compounds were freshly dissolved in 30% DMSO and 70% H2O to a stock concentration of 100 μM. To assist the solubilization of free-base compounds, 10 μL of glacial acetic acid was added along with DMSO. Each test compound was then diluted into 13 half-log serial dilutions using 30% DMSO vehicle; the final test concentrations ranged from 10 μM to 10 pM. The previously frozen membranes were diluted in fresh EBSS to a 100 μg/mL (for D2 or D3) or 200 μg/mL (D4) stock for binding. Radioligand competition experiments were conducted in glass tubes containing 300 μL of fresh EBSS buffer, 50 μL of diluted test compound, 100 μL of membranes (10 μg of total protein for D2 or D3 and 20 μg of total protein for D4), and 50 μL of [^3H]N-methylspiperone (0.4 nM final concentration; PerkinElmer). Nonspecific binding was determined using 10 μM butaclamol (Sigma-Aldrich, St. Louis, MO), and total binding was determined with the 30% DMSO vehicle. All compound dilutions were tested in triplicate and the reaction was incubated for 1 h at room temperature. The reaction was terminated by filtration through Whatman GF/B filters, presoaked for 1 h in 0.5% polyethylenimine, using a Brandel R48 filtering manifold (Brandel Instruments, Gaithersburg, MD). The filters were washed three times with 3 mL of ice-cold EBSS buffer and transferred to scintillation vials. CytoScint liquid scintillation cocktail (3 mL, MP Biomedicals, Solon, OH) was added, and vials were counted using a PerkinElmer Tri-Carb 2910 TR liquid scintillation counter (Waltham, MA).
# [2] = target: T1, D4R (Homo sapiens, UniProt P21917); assay: Radioligand competition binding at human D4R ([3H]N-methylspiperone, HEK293 membranes); parameters: expressed in transfected cells; host or cells: HEK293; details: HEK 293 cells expressing hD4R, read-out: Ki ± SEM, D4R
# T1 sequence (P21917 1-419): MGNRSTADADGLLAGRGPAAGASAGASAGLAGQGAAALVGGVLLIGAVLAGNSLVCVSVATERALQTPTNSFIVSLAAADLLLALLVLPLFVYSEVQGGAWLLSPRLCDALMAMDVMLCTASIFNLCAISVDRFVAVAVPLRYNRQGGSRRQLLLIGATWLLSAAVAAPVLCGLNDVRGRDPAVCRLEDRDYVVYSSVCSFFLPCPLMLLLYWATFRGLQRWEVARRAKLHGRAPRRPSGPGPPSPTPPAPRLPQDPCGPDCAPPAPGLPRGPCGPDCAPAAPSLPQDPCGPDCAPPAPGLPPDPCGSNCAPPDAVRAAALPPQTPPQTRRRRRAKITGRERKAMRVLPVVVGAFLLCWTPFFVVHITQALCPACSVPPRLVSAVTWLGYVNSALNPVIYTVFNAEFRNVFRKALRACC
# Description: as §1, §2
# [3] = target: 5-HT2AR (Homo sapiens, UniProt P28223); assay: 5-HT2A IP-1 formation (HEK-h5HT2A cells); details: for % inhib., 5-HT2A IP-1 formation: antagonist mode, normalized to the inhibition by 10 μM ketanserin; for functional behavior at 5-HT2AR: in words
# Chain of 5-HT2AR (P28223 whole entry): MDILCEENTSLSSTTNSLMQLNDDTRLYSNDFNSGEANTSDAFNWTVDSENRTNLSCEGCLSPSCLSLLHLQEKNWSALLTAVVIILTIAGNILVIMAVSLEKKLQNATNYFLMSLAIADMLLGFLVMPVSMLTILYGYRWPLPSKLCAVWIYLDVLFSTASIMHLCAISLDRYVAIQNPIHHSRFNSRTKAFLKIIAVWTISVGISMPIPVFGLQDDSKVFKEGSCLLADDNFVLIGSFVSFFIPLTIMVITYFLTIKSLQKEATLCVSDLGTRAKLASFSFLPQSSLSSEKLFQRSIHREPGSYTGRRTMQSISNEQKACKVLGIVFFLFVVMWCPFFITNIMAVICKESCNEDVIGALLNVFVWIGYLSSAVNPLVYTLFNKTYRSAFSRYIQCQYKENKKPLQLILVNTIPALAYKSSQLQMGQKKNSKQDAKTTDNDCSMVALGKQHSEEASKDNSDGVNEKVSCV
# Description: HEK-h5HT2A or HEK-h5HT2C cells are used as the tissue source. The day before the experiment, cells are plated in 24-well plates at a density of 400,000 cells per well using DMEM supplemented with charcoal-stripped FetalClone. Drugs are made up in stimulation buffer supplied in the kit. Medium is removed from the well, test compounds or serotonin or antagonist or buffer is added, and the cells are incubated for 1 h. The cells are lysed for 30 min, and 50 μL of cell lysate is added to the IP-1 plates. After the addition of appropriate antibodies, the plates are incubated for 3 h, washed six times, incubated with the substrate for 20 min, and, after termination of the reaction, the plate is read on a plate reader at 450 nm with a correction at 620 nm.
# [4] = target: D3R (Homo sapiens, UniProt P35462); assay: Radioligand competition binding at human D3R ([3H]N-methylspiperone, HEK293 membranes); parameters: expressed in transfected cells; host or cells: HEK293; details: for Ki: [3H]N-methylspiperone, HEK 293 cells expressing hD3R, read-out: Ki ± SEM, D3R; for D2/D3: ratio of Ki values D2R/D3R; for D4/D3: ratio of Ki values D4R/D3R
# Chain of D3R (P35462 whole entry): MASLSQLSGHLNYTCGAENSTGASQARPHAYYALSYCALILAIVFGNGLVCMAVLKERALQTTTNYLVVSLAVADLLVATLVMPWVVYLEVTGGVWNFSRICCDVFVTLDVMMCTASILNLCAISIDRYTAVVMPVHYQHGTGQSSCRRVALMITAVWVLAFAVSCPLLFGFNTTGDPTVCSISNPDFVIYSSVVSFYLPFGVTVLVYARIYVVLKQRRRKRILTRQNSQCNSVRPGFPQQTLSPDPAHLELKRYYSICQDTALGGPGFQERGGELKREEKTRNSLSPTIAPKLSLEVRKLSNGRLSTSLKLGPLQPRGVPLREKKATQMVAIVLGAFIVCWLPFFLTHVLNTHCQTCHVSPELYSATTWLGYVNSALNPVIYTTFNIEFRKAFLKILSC
# Description: as §1, §2
SMILES,Ki [1],Ki [2],"% inhib., 5-HT2A IP-1 formation [3]",functional behavior at 5-HT2AR [3],Ki [4],D2/D3 [4],D4/D3 [4]
"O=C(NCCCCN1CCN(c2cccc(Cl)c2Cl)CC1)C1COC(c2ccccc2)(c2ccccc2)CO1 (centres unmarked) [compound 6, N-(4-(4-(2,3-Dichlorophenyl)piperazin-1-yl)butyl)-5,5-diphenyl-1,4-dioxane-2-carboxamide]",28.7 ± 5.4 nM,54.6 ± 7.3 nM,(88.6) %,"efficacious D2R and 5-HT2AR antagonists with high and low potency, respectively",1.58 ± 0.24 nM,18,35
"O=C(NCCCCN1CCN(c2cccc(Cl)c2Cl)CC1)C1COCC(c2ccccc2)(c2ccccc2)O1 (centres unmarked) [compound 3, N-(4-(4-(2,3-Dichlorophenyl)piperazin-1-yl)butyl)-6,6-diphenyl-1,4-dioxane-2-carboxamide]",342 ± 105 nM,1350 ± 449 nM,(45.4) %,,2.39 ± 0.69 nM,143,566
"O=C(NCCCCN1CCN(c2cccc(Cl)c2Cl)CC1)C1COc2ccccc2O1 (centres unmarked) [compound 9, N-(4-(4-(2,3-Dichlorophenyl)piperazin-1-yl)butyl)-2,3-dihydrobenzo[b][1,4]dioxine-2-carboxamide]",46.4 ± 5.9 nM,74.7 ± 24.5 nM,(86.8) %,"efficacious D2R and 5-HT2AR antagonists with high and low potency, respectively",2.16 ± 0.63 nM,22,35
